Assay results reported in patent US20150335657A1, “Methods for Modulating Sirtuin Enzymes” (The Trustees of Princeton University, priority 2014, published 2015).

Experiments:
SIRT1 = biological target: T1, SIRT1 (Homo sapiens, UniProt Q96EB6); assay: Sirtuin deacetylase enzyme activity assay (Cayman Chemical), compound screen; assay type: biochemical; conditions: compound at 50 μM; Z-score of change in fluorescent signal; + increase, − decrease
T1 construct: purchased Cayman Chemical
T1 sequence (Q96EB6 1-747): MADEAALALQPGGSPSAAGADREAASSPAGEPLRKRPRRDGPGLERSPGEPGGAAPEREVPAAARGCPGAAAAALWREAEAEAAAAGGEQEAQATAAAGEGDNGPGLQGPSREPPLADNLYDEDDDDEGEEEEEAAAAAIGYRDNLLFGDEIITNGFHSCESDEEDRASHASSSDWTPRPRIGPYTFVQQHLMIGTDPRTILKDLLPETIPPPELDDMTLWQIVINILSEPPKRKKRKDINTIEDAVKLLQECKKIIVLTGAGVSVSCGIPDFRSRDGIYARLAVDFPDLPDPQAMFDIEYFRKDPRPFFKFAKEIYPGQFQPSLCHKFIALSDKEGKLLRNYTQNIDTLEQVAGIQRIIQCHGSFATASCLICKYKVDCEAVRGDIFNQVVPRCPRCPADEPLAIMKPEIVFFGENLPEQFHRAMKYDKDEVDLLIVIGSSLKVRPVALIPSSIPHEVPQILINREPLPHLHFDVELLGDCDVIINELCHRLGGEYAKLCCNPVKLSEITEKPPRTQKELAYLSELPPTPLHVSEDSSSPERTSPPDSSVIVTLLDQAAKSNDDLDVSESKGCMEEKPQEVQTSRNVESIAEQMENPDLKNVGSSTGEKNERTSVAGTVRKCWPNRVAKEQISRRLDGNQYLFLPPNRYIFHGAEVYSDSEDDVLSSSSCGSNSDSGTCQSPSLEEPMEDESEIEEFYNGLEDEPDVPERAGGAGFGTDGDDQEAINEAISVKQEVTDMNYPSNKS
Description: (§1) Sirtuins have been identified as innate viral restriction factors and it has been previously shown that drugs that modulate the activity of these enzymes block the production of multiple viruses in culture (see, e.g., WO 2012/106509). Sirtuins are NAD-dependent enzymes that regulate the activity of target proteins by post-translational modifications and thereby control key cellular events (see, e.g., Haigis and Sinclair (2010) Ann Rev Pathol Mech Dis 5:253-95). SIRT1, SIRT2, SIRT3 and SIRT6 have shown a detectable deacetylase activity in well-established biochemical assays that utilize recombinant SIRT1, SIRT2, SIRT3, and SIRT6 enzymes and fluorophore-conjugated acetyl-peptides. As described in the Examples below, the deacetylase activity of these sirtuins were used as a surrogate to identify compounds having broad-range antiviral activity.
(§2) A publically disclosed, small molecule library consisting of approximately 13,000 compounds was screened using a commercially available (Cayman Chemical) enzyme activity assay. Deacetylase activity of sirtuins SIRT1, SIRT2, SIRT3, and SIRT6 was used as a surrogate to identify compounds with the potential for having broad-range antiviral activity. The compounds were tested at a single concentration (50 μM) in microtiter plates and their activity against the four sirtuins was recorded as a change in fluorescent signal intensity. […] Activation of sirtuin activity generated positive Z-scores and inhibition of sirtuin activity produced negative Z-scores.

SIRT2 = biological target: T2, SIRT2 (Homo sapiens, UniProt Q8IXJ6); assay: as above; assay type: biochemical; conditions: compound at 50 μM; Z-score of change in fluorescent signal; + increase, − decrease
T2 construct: purchased Cayman Chemical
T2 sequence (Q8IXJ6 1-389): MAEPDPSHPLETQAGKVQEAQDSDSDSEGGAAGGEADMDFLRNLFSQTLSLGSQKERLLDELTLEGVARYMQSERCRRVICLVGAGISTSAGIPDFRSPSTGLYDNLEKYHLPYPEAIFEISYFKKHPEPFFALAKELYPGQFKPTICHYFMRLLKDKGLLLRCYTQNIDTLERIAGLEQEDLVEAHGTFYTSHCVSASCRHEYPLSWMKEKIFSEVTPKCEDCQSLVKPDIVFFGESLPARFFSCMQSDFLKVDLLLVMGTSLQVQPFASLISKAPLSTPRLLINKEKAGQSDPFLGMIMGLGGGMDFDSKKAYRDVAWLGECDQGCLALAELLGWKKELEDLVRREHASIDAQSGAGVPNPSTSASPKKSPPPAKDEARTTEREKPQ
Description: as §1, §2

SIRT3 = biological target: T3, SIRT3 (Homo sapiens, UniProt Q9NTG7); assay: as above; assay type: biochemical; conditions: compound at 50 μM; Z-score of change in fluorescent signal; + increase, − decrease
T3 construct: purchased Cayman Chemical
T3 sequence (Q9NTG7 1-399): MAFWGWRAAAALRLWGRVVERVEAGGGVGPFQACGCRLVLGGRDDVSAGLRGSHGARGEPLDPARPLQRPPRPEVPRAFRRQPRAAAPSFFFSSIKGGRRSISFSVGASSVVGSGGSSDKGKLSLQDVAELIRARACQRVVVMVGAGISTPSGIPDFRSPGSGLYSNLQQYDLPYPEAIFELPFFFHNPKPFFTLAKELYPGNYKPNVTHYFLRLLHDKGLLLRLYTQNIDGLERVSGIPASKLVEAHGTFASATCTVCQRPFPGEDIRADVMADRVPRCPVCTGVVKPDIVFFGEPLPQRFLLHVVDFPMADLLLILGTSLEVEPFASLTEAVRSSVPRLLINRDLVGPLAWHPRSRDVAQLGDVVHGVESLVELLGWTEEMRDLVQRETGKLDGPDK
Description: as §1, §2

SIRT6 = biological target: T4, SIRT6 (Homo sapiens, UniProt Q8N6T7); assay: as above; assay type: biochemical; conditions: compound at 50 μM; Z-score of change in fluorescent signal; + increase, − decrease
T4 construct: purchased Cayman Chemical
Description: as §1, §2

[1] = tested on: human cytomegalovirus (HCMV) AD169 strain; assay: Antiviral activity against HCMV in MRC5 fibroblasts (virus yield, fluorescent focus assay); assay type: cell-based; conditions: Human betaherpesvirus 5, HCMV AD169, 1 infectious unit/cell, treated 2 h after infection, virus in medium at 96 h
[2] = Tetrazolium-based cell viability assay (cytotoxicity); conditions: human

T4 sequence (Q8N6T7 whole entry): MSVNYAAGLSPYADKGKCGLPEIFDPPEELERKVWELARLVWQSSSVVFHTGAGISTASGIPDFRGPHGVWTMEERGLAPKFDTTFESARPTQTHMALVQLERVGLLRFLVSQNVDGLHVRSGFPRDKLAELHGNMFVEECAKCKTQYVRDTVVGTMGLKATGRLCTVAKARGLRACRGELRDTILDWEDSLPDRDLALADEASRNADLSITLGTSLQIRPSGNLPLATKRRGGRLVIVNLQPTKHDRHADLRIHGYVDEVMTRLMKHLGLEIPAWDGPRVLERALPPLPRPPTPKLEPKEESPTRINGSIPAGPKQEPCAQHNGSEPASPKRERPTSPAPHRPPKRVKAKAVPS

| SMILES | SIRT1 (change in sirtuin deacetylase activity, Z-score class) (SIRT1) | SIRT2 (change in sirtuin deacetylase activity, Z-score class) (SIRT2) | SIRT3 (change in sirtuin deacetylase activity, Z-score class) (SIRT3) | SIRT6 (change in sirtuin deacetylase activity, Z-score class) (SIRT6) | IC50 [1] [µM] | IC90 [1] [µM] | CC50 at 96 h [2] [µM] |
| --- | --- | --- | --- | --- | --- | --- | --- |
| COc1ccccc1C(C)C(F)CNc1cnc2ccccc2c1 (stereo not shown) | +++ (Z-score ≧ 3 = +++) | ++ (2 ≦ Z-score < 3 = ++) | na (−2 ≦ Z-score < 2 = no activity (na)) | +++ (Z-score ≧ 3 = +++) | 1.19 | 2.24 | > 50 |
| COc1cccc(CN2C(=O)c3cccnc3N(C)C2C(F)C(C)c2cnc3ccccc3c2)c1 (stereo not shown) | +++ (Z-score ≧ 3 = +++) | +++ (Z-score ≧ 3 = +++) | +++ (Z-score ≧ 3 = +++) | +++ (Z-score ≧ 3 = +++) | 1.54 | 15.5 | 25 to 50 |
| CC(CCNc1cccnc1)c1c[nH]c2ccccc12 (stereo not shown) | na (−2 ≦ Z-score < 2 = no activity (na)) | +++ (Z-score ≧ 3 = +++) | na (−2 ≦ Z-score < 2 = no activity (na)) | na (−2 ≦ Z-score < 2 = no activity (na)) | 15.8 | 43.1 | > 50 |
| COc1ccc2[nH]cc(C(C)CCNc3cccnc3)c2c1 (stereo not shown) | na (−2 ≦ Z-score < 2 = no activity (na)) | +++ (Z-score ≧ 3 = +++) | na (−2 ≦ Z-score < 2 = no activity (na)) | na (−2 ≦ Z-score < 2 = no activity (na)) | 17.4 | 46.5 | > 50 |
| CCN1CC(C(C)c2ccc(C)nc2)Oc2ccc(C(F)(F)F)cc2C1=O (stereo not shown) | na (−2 ≦ Z-score < 2 = no activity (na)) | +++ (Z-score ≧ 3 = +++) | na (−2 ≦ Z-score < 2 = no activity (na)) | na (−2 ≦ Z-score < 2 = no activity (na)) | 18.4 | 42.3 | > 50 |
| CC(c1ccccc1F)C(O)CNc1ccc(O)nc1 (stereo not shown) | na (−2 ≦ Z-score < 2 = no activity (na)) | na (−2 ≦ Z-score < 2 = no activity (na)) | +++ (Z-score ≧ 3 = +++) | +++ (Z-score ≧ 3 = +++) | 19.4 | 44 | > 50 |
| CC(c1ccnn1C)C(CN1CCN(C)CC1)Oc1ccc(C#N)cn1 (stereo not shown) | −− (−3 < Z-score ≦ −2 = −−) | na (−2 ≦ Z-score < 2 = no activity (na)) | na (−2 ≦ Z-score < 2 = no activity (na)) | +++ (Z-score ≧ 3 = +++) | 21.1 | 42.4 | > 50 |
| COc1ccccc1C1C(=O)N(C(C)C)CC1O (stereo not shown) | na (−2 ≦ Z-score < 2 = no activity (na)) | +++ (Z-score ≧ 3 = +++) | na (−2 ≦ Z-score < 2 = no activity (na)) | na (−2 ≦ Z-score < 2 = no activity (na)) | 23.9 | 47.2 | > 50 |
| CC(C)c1cc(N)n(C(C(=O)O)C(C)c2ccccc2Cl)n1 (stereo not shown) | −− (−3 < Z-score ≦ −2 = −−) | −− (−3 < Z-score ≦ −2 = −−) | na (−2 ≦ Z-score < 2 = no activity (na)) | na (−2 ≦ Z-score < 2 = no activity (na)) | 25.5 | 57.9 | > 50 |
| COc1cccc(C(C)C(O)Cn2cc(-c3cc(Cl)cnc3N)nn2)c1 (stereo not shown) | +++ (Z-score ≧ 3 = +++) | na (−2 ≦ Z-score < 2 = no activity (na)) | na (−2 ≦ Z-score < 2 = no activity (na)) | +++ (Z-score ≧ 3 = +++) | 26.2 | 44.3 | > 50 |
| COc1ccc(C(C)C(CN2CCc3ccccc3C2)n2nc(-c3cccnc3)cc2N)cc1 (stereo not shown) | −−− (Z-score ≦ −3 = −−−) | −− (−3 < Z-score ≦ −2 = −−) | na (−2 ≦ Z-score < 2 = no activity (na)) | na (−2 ≦ Z-score < 2 = no activity (na)) | 27.7 | 55.7 | > 50 |
| CC(c1ccncc1)c1cnc(N2CCc3ccccc3C2)s1 (stereo not shown) | na (−2 ≦ Z-score < 2 = no activity (na)) | −−− (Z-score ≦ −3 = −−−) | na (−2 ≦ Z-score < 2 = no activity (na)) | na (−2 ≦ Z-score < 2 = no activity (na)) | 28.3 | 41.9 | > 50 |
| Cc1ccc(C(C)C(CN2CCN(C)CC2)Oc2cnccn2)cn1 (stereo not shown) | na (−2 ≦ Z-score < 2 = no activity (na)) | na (−2 ≦ Z-score < 2 = no activity (na)) | na (−2 ≦ Z-score < 2 = no activity (na)) | +++ (Z-score ≧ 3 = +++) | 30.2 | 56 | > 50 |
